# Reference: US20110059970A1, “4-PHENYL-1,3-THIAZOLES AND 4-PHENYL-1,3-OXAZOLES DERIVATIVES AS CANNABINOID RECEPTOR LIGANDS” (IPSEN PHARMA S.A.S., priority 2007, published 2011)
# Where a name gives a salt, the structure may show the parent alone.
# Legend:
# human CB2 receptors = molecular target: T1, human CB2 receptors (Homo sapiens, UniProt P34972); test: Affinity for human CB2 receptors: inhibition of [3H]-CP55940 binding to membranes of transfected CHO-K1 cells; conditions: [3H]-CP55940 (1 nM) competition, CHO-K1 membranes; IC50 converted to Ki by Cheng-Prusoff; read-out: affinity for the CB2 receptor
# T1 construct: expressed in transfected cells; membranes prepared from them
# T1 sequence (P34972 whole entry): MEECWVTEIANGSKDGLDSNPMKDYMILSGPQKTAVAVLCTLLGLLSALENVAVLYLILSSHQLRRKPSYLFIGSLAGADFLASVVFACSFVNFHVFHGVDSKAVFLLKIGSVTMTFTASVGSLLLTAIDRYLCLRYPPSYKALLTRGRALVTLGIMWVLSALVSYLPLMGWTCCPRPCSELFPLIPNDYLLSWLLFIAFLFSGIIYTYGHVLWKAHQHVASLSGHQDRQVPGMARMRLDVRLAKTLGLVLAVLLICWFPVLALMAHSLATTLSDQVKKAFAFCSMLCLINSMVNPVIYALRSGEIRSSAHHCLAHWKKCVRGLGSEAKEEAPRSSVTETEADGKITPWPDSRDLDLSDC
# Experimental: Study of the Affinity of the Compounds for Human Cannabinoid CB2 Receptors
# The affinity of the compounds of the invention for human CB2 receptors was determined by measuring inhibition of [^3H]-CP55940 binding to membrane preparations produced from transfected CHO-K1 cells.
# CHO-K1 cells stably expressing human CB2 receptors were cultured in RPMI 1640 medium supplemented with 10% foetal calf serum, 2 mM glutamine, 100 U/ml penicillin, 0.1 mg/ml streptomycin and 0.5 mg/ml G418. The cells were collected using 0.5 mM EDTA and centrifuged at 500 g for 5 min at 4° C. The cell pellet was resuspended in phosphate buffered saline (PBS) and centrifuged at 500 g for 5 min at 4° C. The pellet was resuspended in 50 mM tris buffer pH 7.4 and centrifuged at 500 g for 5 min at 4° C. The cells were lysed by sonication and centrifuged at 39,000 g for 10 min at 4° C. The pellet was resuspended in 50 mM tris buffer pH 7.4 and centrifuged at 50,000 g for 10 min at 4° C. The membranes obtained in this final pellet were stored at −80° C.
# Competitive inhibition of the binding of [^3H]-CP55940 to CB2 receptors was determined in duplicate in 96-well polypropylene plates. Cell membranes (10 μg of protein/well) were incubated with [^3H]-CP55940 (1 nM) for 60 min at 25° C. in 50 mM Tris-HCl buffer, pH 7.4, containing 0.1% bovine serum albumin (BSA), 5 mM MgCl2, and 50 μg/ml of bacitracin.
# Bound [^3H]-CP55940 was separated from free [^3H]-CP55940 by filtration through GF/C fibre glass filter plates (Unifilter, Packard) pre-impregnated with 0.1% polyethylenimine (P.E.I.), using a Filtermate 196 (Packard). The filters were washed with 50 mM Tris-HCl buffer, pH 7.4 at 0-4° C. and the radioactivity present was determined using a counter (Packard Top Count).
# Specific binding was obtained by subtracting non-specific binding (determined in the presence of 0.1 μM WIN55212-2) from total binding. The data were analysed by computer-assisted nonlinear regression (MDL). For each test, the IC50 value was converted to a Ki value (inhibition constant) using the Cheng-Prusoff equation.
# where [L] is the concentration of the radioligand used in the assay and Kd is the dissociation constant of the radioligand at equilibrium.
Structure (SMILES),melting point [°C],Ki (human CB2 receptors) [nM]
"CN(C)C1(c2nc(-c3ccc(C(C)(C)C)cc3)cs2)CCOCC1 (as salt: hydrochloride) [Example 8, {4-[4-(4-tert-butylphenyl)-1,3-thiazol-2-yl]tetrahydro-2H-pyran-4-yl}dimethylamine hydrochloride]",205 to 207,–
COc1c(-c2csc(C3(N(C)C)CCOCC3)n2)cc(C(C)(C)C)cc1C(C)(C)C (as salt: hydrochloride),199.4 to 200.7,–
"CC(C)(C)c1cc(-c2csc(C3(N)CCOCC3)n2)cc(C(C)(C)C)c1 [Example 10, {4-[4-(3,5-di-tert-butylphenyl)-1,3-thiazol-2-yl]tetrahydro-2H-pyran-4-yl}amine]",114 to 114.4,–
"CN(C)C1(c2nc(-c3cc(C(F)(F)F)cc(C(F)(F)F)c3)cs2)CCOCC1 (as salt: hydrochloride) [Example 9, (4-{4-[3,5-bis(trifluoromethyl)phenyl]-1,3-thiazol-2-yl}tetrahydro-2H-pyran-4-yl)dimethylamine hydrochloride]",232.2 to 233,–
"COc1c(Cl)cc(-c2csc(C3(N(C)C)CCOCC3)n2)cc1C(C)(C)C (as salt: hydrochloride) [Example 13, {4-[4-(3-tert-butyl-5-chloro-4-methoxyphenyl)-1,3-thiazol-2-yl]tetrahydro-2H-pyran-4-yl}dimethylamine hydrochloride]",219.7 to 222.2,–

# Results, then the molecule that gave them:
melting point [°C],Ki (human CB2 receptors) [nM],Structure (SMILES)
148.8 to 150.8,500 to 1000,"CC(C)(C)c1cc(-c2csc(C3(N)CCSCC3)n2)cc(C(C)(C)C)c1O [Example 5, 4-[2-(4-aminotetrahydro-2H-thiopyran-4-yl)-1,3-thiazol-4-yl]-2,6-di-tert-butylphenol]"
120 to 121,–,COc1ccc(Oc2ccc(-c3csc(C4(N(C)C)CCOCC4)n3)cc2)cc1 (as salt: hydrochloride)
128.4 to 129.7,–,"COc1c(C(C)(C)C)cc(-c2csc(C3(N)CCOCC3)n2)cc1C(C)(C)C [Example 1, {4-[4-(3,5-di-tert-butyl-4-methoxyphenyl)-1,3-thiazol-2-yl]tetrahydro-2H-pyran-4-yl}amine]"
237.5 to 239,–,COc1c(C)cc(-c2csc(C3(N(C)C)CCOCC3)n2)cc1C (as salt: hydrochloride)
